Entries after “also recorded” stand apart in the source; their conditions may differ.
Legend:
VDRmem = test: Binding to membrane receptor VDRmem; conditions: relative to 1α,25(OH)2 D3
[1] = system: MAP-kinase p42^mapk in NB4 cells; test: MAP-kinase activation (p42mapk phosphorylation) in NB4 cells; type: cell-based, human
Description: In order to determine whether MAP-kinase phosphorylation is specific and is altered by 1α,25(OH)2 D3, the time-dependent effects of 1α,25(OH)2 D3 on p42^mapk phosphorylation was examined using human acute promyelocytic leukemia cells (NB4). In this study, the NB4 cells, cultured in 10% charcoal-stripped fetal calf serum (FCS) medium, were treated with 1α,25(OH)2 D3 at 10^-8 M for various time periods. Cells were then extracted and the phosphorylated MAP-kinase was immunoprecipitated with anti-phosphotyrosine antibody and further analyzed by Western blot using the antibodies against p42^mapk.
The lysate was further processed for anti-phosphotyrosine immunoprecipitation. […] After transferring the proteins to the PVDF membrane, the membrane was further incubated with primary anti-p42^mapk antibodies that were (+) or were not (-) pre-exposed to MAP-kinase peptide.
This example describes assays used for measurement of MAP-kinase activity in NB4 cells.
Cell culture of NB4 cells
The cell line is characterized by a translocation involving chromosomes 15 and 17, which is typical of the classical form of APL-M3 in the French-American-British [FAB] classification. NB4 cells were cultured in DMEM/F12 medium with 10% FCS at 5% CO2 balanced air and were routinely passaged as suspension cultures and only passages 8 to 20 were used for each assay.
Immunoprecipitation of Tyrosine-Phosphorylated Proteins
NB4 cells were cultured in 60-mm diameter dishes and treated with 1,25(OH)2 D3 or analogs in 4 ml of DMEM/F12 containing 10% charcoal-stripped FCS.
Insoluble material was removed in a microcentrifuge at 14,000 rpm for 10 min. Protein concentration was determined with a protein assay kit (Bio-Rad Lab, Hercules, Calif.). For immunoprecipitation, the supernatant was incubated with bead-conjugated monoclonal anti-phosphotyrosine antibody overnight at 4° C. The immunoprecipitates containing the tyrosine-phosphorylated proteins were washed four times with freshly-prepared RIPA buffer and further eluted with 2× Laemmli gel buffer.
At this point, the samples were either stored at -20° C. for further use or processed via Western blots. Equal loading of MAP-kinase protein was determined by running the Western blots using polyclonal anti-p42^mapk antibody. For this purpose, samples were aliquoted from each cell extract before immunoprecipitation.
SDS Gel Electrophoresis and Western blot
The membrane was further immunoblotted using a rabbit anti-p42^mapk polyclonal antibody overnight at 4° C. followed by incubation with secondary horseradish peroxidase-conjugated mouse anti-rabbit antibody for 1 hr at 25° C. The phosphorylated MAP-kinase bands were then visualized by enhanced chemiluminescence (ECL). A Ultrascan LX Laser Densitometer (LKB, Bromma, Sweden) scanned the density of the immuno-phosphoprotein bands. The results were normalized by protein loading and further plotted as percent of control of the band density.

[2] = system: chloride channels in ROS 17/2.8 cells; conditions: 1 nM HL in the bath; 1α,25(OH)2 D3 5 nM or less
Description: In each case, at least a 3-min period was allowed after the addition of the analog to the bath for currents to reach a stable amplitude value. […] Anion currents were isolated from inward Ba^2+ currents after blockade of Ca^2+ channels with 100 μM Cd^2+.

SMILES	binding to VDRmem receptor (VDRmem) [%]	activation of MAP-kinase versus 1α,25(OH)2 D3 ([1]; 1 minute)	activation of MAP-kinase versus 1α,25(OH)2 D3 ([1]; 5 minute)	antagonism of 1α,25(OH)2 D3-stimulated chloride channel opening [2]	antagonism of 1α,25(OH)2 D3-mediated MAP-kinase activation ([1]; HL 10^-9 M with 1α,25(OH)2 D3 at 1, 10 or 100×10^-10 M, 5 min)	stimulation of MAP-kinase by analog alone ([1]; HL alone)
C[C@H](CCCC(C)(C)O)[C@H]1CC[C@H]2C3=CC=C4C[C@@H](O)C[C@H](O)[C@@]4(C)[C@@H]3CC[C@]12C [JN]	105	more than 1α,25(OH)2 D3	only slightly less active			
C=C1/C(=C\C=C2/CCC[C@]3(C)[C@@H]([C@H](C)CCCC(C)(C)O)CC[C@@H]23)C[C@@H](O)C[C@H]1O [HL]				capable of antagonizing rapid responses; also recorded: inhibit the ability of 1α,25(OH)2 D3 to increase outward currents	antagonist of activation of MAP-kinases; also recorded: capable of antagonizing rapid responses; also recorded: able to block 1α,25(OH)2 D3	no stimulation of MAP-kinase
